{"source": "patent US20060241082A1", "about": "“Modulating vesicular monoamine transporter trafficking and function: a novel approach for the treatment of parkinson's disease” (priority 2002, published 2006)", "key": {"VMAT-2 [1]": {"target": "T1, VMAT-2 (Rattus norvegicus, UniProt Q01827)", "T1 sequence (Q01827 whole entry)": "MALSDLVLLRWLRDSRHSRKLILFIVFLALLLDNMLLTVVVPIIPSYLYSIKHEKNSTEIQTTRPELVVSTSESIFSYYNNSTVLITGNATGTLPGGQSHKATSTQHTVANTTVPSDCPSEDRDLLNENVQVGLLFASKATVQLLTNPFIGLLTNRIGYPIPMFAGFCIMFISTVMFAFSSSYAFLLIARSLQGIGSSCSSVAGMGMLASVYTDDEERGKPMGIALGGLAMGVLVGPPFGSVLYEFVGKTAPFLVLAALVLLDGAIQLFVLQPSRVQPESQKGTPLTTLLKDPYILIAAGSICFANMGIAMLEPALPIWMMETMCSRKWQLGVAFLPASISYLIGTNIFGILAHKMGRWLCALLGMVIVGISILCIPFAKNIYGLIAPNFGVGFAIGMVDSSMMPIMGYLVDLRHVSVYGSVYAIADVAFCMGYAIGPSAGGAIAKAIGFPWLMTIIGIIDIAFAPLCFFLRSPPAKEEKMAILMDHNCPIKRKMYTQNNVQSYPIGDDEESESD", "assay": "[3H]DHTBZ binding in purified striatal vesicles prepared from treated rats", "procedure": "Synaptic vesicles were obtained from synaptosomes prepared from rat striatum as described above. Synaptosomes were resuspended and homogenized in cold distilled deionized water. Osmolarity was restored by addition of HEPES and potassium tartrate 245 and 100 mM (final concentrations; pH 7.5), respectively. Samples were centrifuged for 20 min at 20,000×g (4° C.) to remove lysed synaptosomal membranes. MgSO4 (1 mM, final concentration) was added to the supernatant, which was then centrifuged for 45 min at 100,000×g (4° C.). The resulting vesicular pellet was resuspended in wash buffer at a concentration of 50 mg/ml (original tissue weight). […] Binding of [^3H]DHTBZ was performed as described by Teng et al. (1998). Briefly, 200 μl of the synaptic vesicle preparation (˜6 μg of protein) was incubated in wash buffer in the presence of [^3H]DHTBZ (2 nM final concentration) for 10 min at 25° C. The reaction was terminated by addition of 1 ml of cold wash buffer and rapid filtration through Whatman GF/F filters soaked in 0.5% polyethylenimine. Filters were washed three times with ice-cold wash buffer. Nonspecific binding was determined by coincubation with 20 μM tetrabenazine. All protein concentrations were determined by a BioRad protein assay (Bio-Rad, Richmond, Calif.).\nBinding of [^3H]DHTBZ was performed as described by Teng et al. (1998). Briefly, 200 μl (˜6 μg protein) of the synaptic vesicle preparation was incubated in wash buffer in the presence of [^3H]DHTBZ (2 nM final concentration except in kinetic analyses wherein 0.25-500 nM DHTBZ was employed) for 10 m in at 25° C. The reaction was terminated by addition of 1 ml cold wash buffer and rapid filtration through Whatman GF/F filters soaked in 0.5% polyethylenimine. Filters were washed three times with ice-cold wash buffer. Radioactivity trapped in filters was counted using a liquid scintillation counter. Nonspecific binding was determined by coincubation with 20 μM TBZ. All protein concentrations were determined by a Bio-Rad protein assay (Bio-Rad Inc.).\nBinding of[^3H]DHTBZ was performed as described by Teng et al. (1998). Briefly, 200 μl (˜5 μg protein) of the synaptic vesicle preparation was incubated in wash buffer in the presence of [^3H]DHTBZ (2 nM final concentration except in kinetic analyses wherein 0.25-500 nM DHTBZ was employed) for 10 m in at 25° C. The reaction was terminated by addition of 1 ml cold wash buffer and rapid filtration through Whatman GF/F filters soaked in 0.5% polyethylenimine. Filters were washed three times with ice-cold wash buffer. Radioactivity trapped in filters was counted using a liquid scintillation counter. Nonspecific binding was determined by coincubation with 20 μM TBZ. All protein concentrations were determined by a Bio-Rad protein assay (Bio-Rad Inc.)."}, "[2]": {"assay": "Striatal tissue DA content of treated rats (HPLC)", "type": "in vivo, rat", "settings": "rats", "protocol": "On the day of the assay, frozen tissue samples were thawed, sonicated for 3-5 s in tissue buffer (0.05 M sodium phosphate/0.03 M citric acid buffer with 15% methanol (v/v); pH 2.78), and centrifuged for 15 min at 22,000×g. Tissue pellets were retained and protein determined according to the method of Lowry et al. (1951). The supernatant was centrifuged a second time for 15 min at 22,000×g. 20 μl of supernatant were injected onto a high performance liquid chromatograph system coupled to an electrochemical detector (+0.73 V) for separation and quantitation of dopamine levels using the method of Chapin et al. (1986)."}, "VMAT-2 [3]": {"system": "VMAT-2", "assay": "VMAT-2 immunoreactivity in striatal subcellular fractions (P2, P3, S3) of treated rats (Western blot)", "type": "in vivo, rat", "settings": "1 h", "protocol": "Striatal synaptosomes were prepared from rats decapitated 1 h after treatment as previously described (Fleckenstein et al., 1997). Briefly, striatal tissue was homogenized in cold 0.32 M sucrose and centrifuged (800×g for 12 min; 4° C.). The supernatant (S1) was then centrifuged (22,000×g for 15 min; 4° C.) and the resulting pellet (P2, synaptosomal fraction) was resuspended at 50 mg original wet weight/ml in cold water and a portion saved for western blot analysis. The remainder of the synaptosomal sample was centrifuged for 20 min at 22,000×g (4° C.) to pellet lysed synaptosomal membranes (P3, synaptosomal membrane fraction), which were then resuspended at 50 mg original wet weight/ml and saved for western blot analysis. Prior to resuspension of the plasmalemmal membrane fraction the supernatant (S3, vesicle-enriched fraction) was removed and saved for western blot analysis.\nBinding of VMAT-2 antibody was performed using 60 μl aliquots of synaptosomal (P2), synaptosomal membrane (P3), or vesicle-enriched (S3) preparations. Each aliquot was added to 20 μl of loading buffer (final concentration: 2.25% sodium dodecyl sulfate, 18% glycerol, 180 mM Tris base (pH 6.8), 10% β-mercapto-ethanol and bromophenol blue), boiled for 10 min, and loaded on a 10% sodium dodecyl sulfate-polyacrylamide gel. Following electrophoresis, samples were transferred to polyvinlylidene difluoride membrane, blocked with 5% nonfat dry milk in Tris-buffered saline with tween (250 mM NaCl, 50 mM Tris pH 7.4 and 0.05% Tween 20), and probed with the VMAT-2 antibody (provided by J.W.H.). Bound antibody was visualized with HRP-conjugated goat anti-rabbit antibody, and antigen-antibody complexes were visualized by chemiluminescence. Multiple exposures of blots were obtained to ensure development within the linear range of the film. Bands on blots were quantified by densitometry using Kodak 1D image-analysis software.\nFresh striatal tissue was homogenized in ice-cold 0.32 M sucrose and centrifuged (800×g for 12 min; 4° C.). […] Resuspended tissue was aliquoted into two test tubes. One aliquot was centrifuged (22,000×g for 10 min; 4° C.) to separate plasmalemmal membranes from the synaptic vesicle-enriched fraction. The resulting supernatant (S3) contained the vesicular subcellular fraction of interest, and the pellets (P3; plasmalemmal membrane fraction) were resuspended in cold distilled deionized water.\nVMAT-2 antibody was purchased from Chemicon (Temecula, Calif.; AB1767). Binding of VMAT-2 antibody was performed using 60 μl of whole synaptosomal, plasmalemmal membrane or vesicle subcellular fractions. Samples were added to 20 μl of loading buffer (final concentration: 2.25% SDS, 18% glycerol, 180 mM Tris Base (pH 6.8), 10% […] and bromophenol blue). Approximately 60 μg protein of the whole synaptosomal fraction, 40 μg protein of the plasmalemmal membrane fraction or 20 μg protein of the vesicle subcellular fraction was loaded per well in a 10% SDS-polyacrylamide gel. Following electrophoresis, samples were transferred to polyvinylidene difluoride hybridization transfer membrane (New England Nuclear (NEN), Boston, Mass.). All subsequent incubation steps were performed at room temperature while shaking. Each membrane was first blocked for 2 h in 100 ml of tris buffer saline with tween (TBST; 250 mM NaCl, 50 mM tris pH 7.4 and 0.05% tween 20) containing 5% nonfat dry milk. Each membrane was then incubated with anti-VMAT-2 antibody (1:4000 dilution) in 13 ml of TBST with 5% milk for 1 h and then washed 5 times (2×1 min wash; 3×5 min wash) in 70 ml TBST with 5% milk."}, "VMAT-2 [4]": {"target": "T1, VMAT-2", "type": "in vivo", "design": "purified striatal vesicles prepared from treated rats; from tissue; host or cells: striatum of male Sprague-Dawley rats (synaptic vesicles; P2, P3, S3 fractions)", "settings": "for Km: read-out: Km of vesicular [3H]DA uptake", "protocol": "Osmolarity was restored by addition of N-(2-hydroxyethyl)-piperazine-N′-2-ethanesulfonic acid (HEPES) and potassium tartrate 25 mM and 100 mM (final concentrations; pH 7.5 at 4° C.), respectively."}, "[5]": {"assay": "Vesicular DA content in purified striatal vesicles of treated rats", "type": "in vivo, rat", "protocol": "Purified striatal vesicles were prepared as described above. The resulting vesicular pellet was sonicated for approximately 5 sec in cold tissue buffer (0.05 M sodium phosphate/0.03 M citric acid buffer with 15% methanol (v/v); pH 2.5) at a concentration of 100 mg/ml (original wet weight of tissue), and centrifuged for 15 min at 22,000×g. Tissue pellets were retained and protein was determined according to the method of Lowry et al. (1951). 40 μl of supernatant was injected onto a high performance liquid chromatograph system coupled to an electrochemical detector (+0.73 V) for separation and quantitation of DA levels using the method of Chapin et al. (1986)."}, "[6]": {"settings": "rats, METH 4 x 7.5 mg/kg s.c., 2-h intervals"}, "[7]": {"settings": "METH 4 x 7.5 mg/kg s.c., 2-h intervals"}, "[8]": {"settings": "methamphetamine 4 x 10 mg/kg s.c."}, "[9]": {"settings": "rats, single 15 mg/kg METH injection s.c., 1 h"}, "[10]": {"settings": "rats, MPD 5 mg/kg s.c. injections"}, "[11]": {"settings": "MPD-treated rats, 40 mg/kg s.c., 1 h"}}, "note": "Values joined by “and” are separate entries in the source; they are usually repeats but may differ in a detail not shown here. Equal entries are not always repeated. “Also recorded” adds a separate entry of the source. Where two headings read alike, the source gives them in different places.", "data": [{"compound": "CN[C@@H](C)Cc1ccccc1", "note": "(racemic) [METH, methamphetamine]", "values": [{"measurement": "DHTBZ binding 1 h after the last METH injection", "setting": "VMAT-2 [1]; [6]", "value": "rapidly decreased"}, {"measurement": "striatal DA levels 7 d after treatment", "setting": "[2]; METH 4 x 7.5 mg/kg s.c., 2-h intervals, vs saline/saline", "value": "decreased"}, {"measurement": "decrease in whole tissue DA content", "setting": "[2]; multiple METH, 6 h after drug treatment", "value": 60, "unit": "%"}, {"measurement": "VMAT-2 immunoreactivity in the plasmalemmal membrane fraction (P3)", "setting": "VMAT-2 [3]; [7]", "value": "no change"}, {"measurement": "VMAT-2 immunoreactivity in the vesicular subcellular fraction (S3)", "setting": "VMAT-2 [3]; [7]", "value": "rapidly decreased"}, {"measurement": "VMAT-2 immunoreactivity in the whole synaptosomal fraction (P2)", "setting": "VMAT-2 [3]; [7]", "value": "Slight decreases; also recorded: no change"}, {"measurement": "decrease in VMAT-2 immunoreactivity in the P2 fraction", "setting": "VMAT-2 [3]; methamphetamine 4 x 10 mg/kg s.c., 2-h intervals", "value": 25, "unit": "%"}, {"measurement": "decrease in VMAT-2 immunoreactivity in the P2 fraction", "setting": "VMAT-2 [3]; methamphetamine 4 x 10 mg/kg s.c., 2-h intervals, listed as methamphetamine", "value": 40, "unit": "%"}, {"measurement": "VMAT-2 immunoreactivity in the P3 fractions", "setting": "VMAT-2 [3]; [8]", "value": "no difference"}, {"measurement": "decrease in VMAT-2 immunoreactivity in the S3 fraction", "setting": "VMAT-2 [3]; [8]", "value": 80, "unit": "%"}, {"measurement": "persistence of the decreases in vesicular DA uptake and DHTBZ binding after treatment", "setting": "VMAT-2 [4]; rats, METH 4 x 7.5 mg/kg s.c.", "value": "at least 6 h"}, {"measurement": "vesicular DA uptake 1 h after the last METH injection", "setting": "VMAT-2 [4]; [6]", "value": "rapidly decreased"}, {"measurement": "Vmax of vesicular [3H]DA uptake", "setting": "VMAT-2 [4]; [9]", "value": 607, "unit": "fmol/μg protein/min"}, {"measurement": "Km", "setting": "VMAT-2 [4]; [9]", "value": 0.187, "unit": "µM"}, {"measurement": "decrease in vesicular [3H]DA uptake", "setting": "VMAT-2 [4]; rats, single METH 15 mg/kg s.c., 1 h", "value": "25% and 23%"}, {"measurement": "deficit in vesicular [3H]DA uptake 24 h after treatment", "setting": "VMAT-2 [4]; rats, single METH 15 mg/kg s.c., 24 h", "value": "recovered"}, {"measurement": "vesicular DA levels", "setting": "[5]; METH-treated rats, 4 x 7.5 mg/kg s.c., 1 h after treatment, n=6", "value": "2.30±2.5", "unit": "pg/μg protein"}, {"measurement": "decrease in vesicular DA levels", "setting": "[5]; rats, METH 4 x 7.5 mg/kg s.c., 2-h intervals, 1 h after treatment", "value": 49, "unit": "%"}, {"measurement": "decrease in vesicular DA content", "setting": "[5]; rats, multiple METH, 6 h after drug treatment", "value": 60, "unit": "%"}]}, {"compound": "COC(=O)C(c1ccccc1)C1CCCCN1", "note": "(stereo not drawn) [MPD, methylphenidate]", "values": [{"measurement": "transporter Bmax for [3H]DHTBZ", "setting": "VMAT-2 [1]; MPD-treated rats", "value": 28.87, "unit": "fmol/μg protein"}, {"measurement": "effect of MPD post-treatment on the METH-induced decrease in DHTBZ binding", "setting": "VMAT-2 [1]; rats, 1, 2 or 3 injections of MPD 5 mg/kg s.c. during the initial 6-h period after METH", "value": "reversed"}, {"measurement": "DHTBZ binding after MPD treatment per se", "setting": "VMAT-2 [1]; [10]", "value": "increased"}, {"measurement": "binding of the VMAT-2 ligand [3H]DHTBZ after a single MPD administration", "setting": "VMAT-2 [1]; rats, MPD 5-40 mg/kg s.c., 1 h", "value": "increase"}, {"measurement": "total tissue DA concentrations", "setting": "[2]; 3 injections of MPD 5 mg/kg s.c., 1 h after the last MPD injection", "value": "without altering"}, {"measurement": "total DA levels 7 d after MPD per se", "setting": "[2]; MPD 5 mg/kg s.c.", "value": "did not alter"}, {"measurement": "effect of post-treatment with a single MPD injection on the 7-d striatal DA depletions caused by METH", "setting": "[2]; MPD 5 mg/kg s.c. 1 h after the last METH (4 x 7.5 mg/kg s.c.)", "value": "partially reversed"}, {"measurement": "effect of two or three MPD injections on the persistent METH-induced striatal DA depletions", "setting": "[2]; MPD 5 mg/kg s.c. at 1 and 3 h, or 1, 3 and 5 h after the last METH", "value": "completely prevented"}, {"measurement": "VMAT-2 immunoreactivity in the plasmalemmal membrane fraction", "setting": "VMAT-2 [3]; MPD 40 mg/kg s.c. single", "value": "decreased"}, {"measurement": "VMAT-2 immunoreactivity in the vesicular subcellular fraction", "setting": "VMAT-2 [3]; MPD 40 mg/kg s.c. single", "value": "increases"}, {"measurement": "VMAT-2 immunoreactivity in the whole synaptosomal fraction", "setting": "VMAT-2 [3]; MPD 40 mg/kg s.c. single", "value": "no change"}, {"measurement": "transporter Vmax of vesicular [3H]DA uptake", "setting": "VMAT-2 [4]; [11]", "value": "2350±250", "unit": "fmol/μg protein/3 min"}, {"measurement": "Km", "setting": "VMAT-2 [4]; [11]", "value": "0.23 ± 0.01", "unit": "µM"}, {"measurement": "effect of MPD post-treatment on the METH-induced decrease in vesicular DA uptake", "setting": "VMAT-2 [4]; rat, in vivo", "value": "reversed"}, {"measurement": "vesicular DA uptake after MPD treatment per se", "setting": "VMAT-2 [4]; [10]", "value": "increased"}, {"measurement": "vesicular [3H]DA uptake after a single MPD administration", "setting": "VMAT-2 [4]; rats, MPD 5, 10, 20, or 40 mg/kg s.c., 1 h", "value": "increases"}, {"measurement": "reversal of the increases in vesicular [3H]DA uptake and [3H]DHTBZ binding", "setting": "VMAT-2 [4]; rats, after a 40 mg/kg MPD administration", "value": "≤ 12", "unit": "h"}, {"measurement": "onset of the increases in vesicular [3H]DA uptake and [3H]DHTBZ binding", "setting": "VMAT-2 [4]; rats, single MPD s.c.", "value": "≤ 30", "unit": "min"}, {"measurement": "increase in vesicular DA levels", "setting": "[5]; rats, 3 injections of MPD 5 mg/kg s.c. over a 5 h period, 1 h after the last MPD injection", "value": "~140", "unit": "%"}, {"measurement": "effect of MPD post-treatment on the METH-induced decrease in vesicular DA content", "setting": "[5]; rats, 3 injections of MPD after multiple METH regimen, 6 h after METH treatment", "value": "reversed"}]}]}
